Measurements reported in patent US10647675B2 (priority 2015, dated 2020).
In brackets after ≈: the same amount, converted by molar mass.

Legend:
[1] = system: Trichophyton rubrum KD-1130; assay: Antifungal activity evaluation test: minimum inhibitory concentration (MIC), broth dilution by reference to CLSI M38-A2; format: cell-based; conditions: KD1130, read-out: MIC (T. rubrum)
Summary of the method: (§1)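 Broth microdilution after CLSI M38-A2: 2-fold DMSO dilution series in MOPS-buffered RPMI 1640 pH 7.0, inoculum 2×10^3 cells/mL final. Incubated 35° C for 4 days; MIC (μg/mL) is lowest concentration giving visually ≥80% growth inhibition versus growth control.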

[2] = system: Trichophyton mentagrophytes SM-110; assay: as above; format: cell-based; conditions: SM110, read-out: MIC (T. menta.)
Summary of the method: as §1

Compound | MIC [1] | MIC [2]
c1cnc(Oc2cnc3c(c2)CCC3)c(-c2cccc3c2OCC3)c1 [I-138, 3-{[3-(2,3-dihydrobenzofuran-7-yl)pyridin-2-yl]oxy}-6,7-dihydro-5H-cyclopenta[b]pyridine] | ≤ 0.1 µg/mL | ≤ 0.1 µg/mL
Cc1cnccc1-c1cccnc1Oc1ccc(C(F)(F)F)cc1 [I-205] | ≤ 0.1 µg/mL | ≤ 0.1 µg/mL
CCN(C)c1ncc(Oc2ncccc2-c2cccc3c2OCC3)cn1 [I-340, 5-{[3-(2,3-dihydrobenzofuran-7-yl)pyridin-2-yl]oxy}-N-ethyl-N-methylpyrimidin-2-amine] | ≤ 0.1 µg/mL | ≤ 0.1 µg/mL
FC(F)(F)c1ccc(Oc2ncccc2-c2ccccc2Br)cn1 [I-5, 3-(2-bromophenyl)-2-{[6-(trifluoromethyl)pyridin-3-yl]oxy}pyridine] | ≤ 0.1 µg/mL | 0.2 to 0.78 µg/mL (≈ 0.506 to 1.97 µM)
COc1cnccc1-c1cccnc1Oc1ccc(C(F)(F)F)cc1 [I-204, 3′-methoxy-2-[4-(trifluoromethyl)phenoxy]-3,4′-bipyridine] | ≤ 0.1 µg/mL | ≤ 0.1 µg/mL
COc1ccccc1-c1ccc(C)nc1Oc1ccc(C(F)(F)F)nc1 [I-67] | 0.2 to 0.78 µg/mL (≈ 0.555 to 2.16 µM) | 0.2 to 0.78 µg/mL (≈ 0.555 to 2.16 µM)
FC(F)(F)c1ccc(Oc2ncccc2-c2cncc3cccnc23)cc1 [I-225, 8-{2-[4-(trifluoromethyl)phenoxy]pyridin-3-yl}-1,6-naphthyridine] | ≤ 0.1 µg/mL | ≤ 0.1 µg/mL
CCCN(C)c1ncc(Oc2ncccc2-c2cccnc2OC)cn1 [I-183] | ≤ 0.1 µg/mL | ≤ 0.1 µg/mL
COc1ccccc1-c1cccnc1Oc1ccc(COc2ccccc2)nc1 [I-175, 3-(2-methoxyphenyl)-2-{[6-(phenoxymethyl)pyridin-3-yl]oxy}pyridine] | 0.2 to 0.78 µg/mL (≈ 0.52 to 2.03 µM) | 0.2 to 0.78 µg/mL (≈ 0.52 to 2.03 µM)
CCc1ccc(Oc2ncccc2-c2cnccc2C)cc1 [I-289, 2-(4-ethylphenoxy)-4′-methyl-3,3′-bipyridine] | ≤ 0.1 µg/mL | ≤ 0.1 µg/mL
COc1ncccc1-c1cccnc1Oc1cnc(I)nc1 [I-353] | 0.2 to 0.78 µg/mL (≈ 0.492 to 1.92 µM) | 1.56 to 6.25 µg/mL (≈ 3.84 to 15.4 µM)
COc1ccccc1-c1cncnc1Oc1ccc(C(C)(F)F)nc1 [I-312, 4-{[6-(1,1-difluoroethyl)-pyridin-3-yl]oxy}-5-(2-methoxyphenyl)pyrimidine] | ≤ 0.1 µg/mL | ≤ 0.1 µg/mL
COc1ccccc1-c1cc(C)cnc1Oc1ccc(C(F)(F)F)nc1 [I-66, 3-(2-methoxyphenyl)-5-methyl-2-{[6-(trifluoromethyl)pyridin-3-yl]oxy}pyridine] | 0.2 to 0.78 µg/mL (≈ 0.555 to 2.16 µM) | 1.56 to 6.25 µg/mL (≈ 4.33 to 17.3 µM)
C#CCOc1ccccc1-c1cccnc1Oc1ccc(C(F)(F)F)nc1 [I-56, 3-[2-(2-propyn-1-yloxy)phenyl]-2-{[6-(trifluoromethyl)pyridin-3-yl]oxy}pryidine] | 0.2 to 0.78 µg/mL (≈ 0.54 to 2.11 µM) | 0.2 to 0.78 µg/mL (≈ 0.54 to 2.11 µM)
Cc1nn2c(c1-c1cccnc1Oc1ccc(C(F)(F)F)cc1)OCC2 [I-232, 6-methyl-7-{2-[4-(trifluoromethyl)phenoxy]pyridin-3-yl}-2,3-dihydropyrazolo[1,5-b]oxazole] | 0.2 to 0.78 µg/mL (≈ 0.554 to 2.16 µM) | 0.2 to 0.78 µg/mL (≈ 0.554 to 2.16 µM)
COCC(F)(F)c1ccc(Oc2ncccc2-c2cccc3nccnc23)cn1 [I-168, 5-(2-{[6-(1,1-difluoro-2-methoxyethyl)pyridin-3-yl]oxy}pyridin-3-yl)quinoxaline] | 0.2 to 0.78 µg/mL (≈ 0.507 to 1.98 µM) | 0.2 to 0.78 µg/mL (≈ 0.507 to 1.98 µM)
Cc1ccncc1-c1cccnc1Oc1ccc(C(C)(F)F)cc1 [I-299, 2-[4-(1,1-difluoroethyl)-phenoxy]-4′-methyl-3,3′-bipyridine] | ≤ 0.1 µg/mL | ≤ 0.1 µg/mL
FC(F)(F)c1ccc(Oc2ncccc2-n2ccc3cccnc32)cn1 [I-50, 1-(2-{[6-(trifluoromethyl)pyridin-3-yl]oxy}pyridin-3-yl)-1H-pyrrolo[2,3-b]pryidine] | 0.2 to 0.78 µg/mL (≈ 0.561 to 2.19 µM) | 0.2 to 0.78 µg/mL (≈ 0.561 to 2.19 µM)
COc1ccc(F)cc1-c1cccnc1Oc1ccc(C(F)(F)F)nc1 [I-11, 3-(5-fluoro-2-methoxyphenyl)-2-{[6-(trifluoromethyl)pyridin-3-yl]oxy}pyridine] | ≤ 0.1 µg/mL | ≤ 0.1 µg/mL
CCOc1ncc(Oc2ncccc2-c2ccc(F)cc2OC)cn1 [I-187, 2-ethoxy-5-{[3-(4-fluoro-2-methoxyphenyl)pyridin-2-yl]oxy}pyrimidine] | 1.56 to 6.25 µg/mL (≈ 4.57 to 18.3 µM) | 1.56 to 6.25 µg/mL (≈ 4.57 to 18.3 µM)
COc1cc(F)ccc1-c1cccnc1Oc1cnc(Br)c(C)c1 [I-454] | ≤ 0.1 µg/mL | ≤ 0.1 µg/mL
C#Cc1ccc(Oc2ncccc2-c2cccnc2OC)cc1 [I-390, 2-(4-ethynylphenoxy)-2′-methoxy-3,3′-bipyridine] | ≤ 0.1 µg/mL | ≤ 0.1 µg/mL
CC(F)(F)c1ccc(Oc2ncccc2-c2ccncc2F)cn1 [I-92, 2-{[6-(1,1-difluoroethyl)pyridin-3-yl]oxy}-3′-fluoro-3,4′-bipyridine] | 0.2 to 0.78 µg/mL (≈ 0.604 to 2.35 µM) | 0.2 to 0.78 µg/mL (≈ 0.604 to 2.35 µM)
COc1ccccc1-c1cccnc1Oc1cnc2c(c1)CCCC2(F)F [I-142, 8,8-difluoro-3-{[3-(2-methoxyphenyl)pyridin-2-yl]oxy}-5,6,7,8-tetrahydroquinoline] | ≤ 0.1 µg/mL | ≤ 0.1 µg/mL

Compound | MIC [1] | MIC [2]
COc1ccccc1-c1cccnc1Oc1ccc(C(F)(F)Cn2ccnc2)nc1 [I-351, 2-({6-[1,1-difluoro-2-(1H-imidazol-1-yl)ethyl]pyridin-3-yl}oxy)-3-(2-methoxyphenyl)pyridine] | 0.2 to 0.78 µg/mL (≈ 0.49 to 1.91 µM) | 0.2 to 0.78 µg/mL (≈ 0.49 to 1.91 µM)
COc1cc(F)c(F)cc1-c1cncnc1Oc1ccc(C(F)(F)F)nc1 [I-328, 5-(4,5-difluoro-2-methoxyphenyl)-4-{[6-(trifluoromethyl)pyridin-3-yl]oxy}pyrimidine] | ≤ 0.1 µg/mL | ≤ 0.1 µg/mL
CC(F)(F)c1ccc(Oc2ncccc2-c2cccnc2N2CCCC2)cn1 [I-105] | 1.56 to 6.25 µg/mL (≈ 4.08 to 16.3 µM) | 1.56 to 6.25 µg/mL (≈ 4.08 to 16.3 µM)
Cc1cc(-c2ccc(Oc3ncccc3-c3cnccc3C)cc2)on1 [I-425] | ≤ 0.1 µg/mL | ≤ 0.1 µg/mL
COCCOCC(F)(F)c1ccc(Oc2ncccc2-c2ccc(F)cc2OC)cn1 [I-159, 2-({6-[1,1-difluoro-2-(2-methoxyethoxy)ethyl]pyridin-3-yl}oxy)-3-(4-fluoro-2-methoxyphenyl)pyridine] | 0.2 to 0.78 µg/mL (≈ 0.46 to 1.8 µM) | ≤ 0.1 µg/mL
CCOC(=O)c1ccc(Oc2ncccc2-c2cnccc2CC)cc1 [I-416] | ≤ 0.1 µg/mL | ≤ 0.1 µg/mL
FC(F)(F)c1ccc(Oc2ncccc2-c2ccccc2OCC2CCC2)cn1 [I-55, 3-[2-(cyclobutylmethoxy)phenyl]-2-{[6-(trifluoromethyl)pyridin-3-yl]oxy}pyridine] | 0.2 to 0.78 µg/mL (≈ 0.5 to 1.95 µM) | 0.2 to 0.78 µg/mL (≈ 0.5 to 1.95 µM)
COc1ccccc1-c1cccnc1Oc1ccc(C(F)(F)CN(C)OC)nc1 [I-150, N-[2,2-difluoro-2-(5-{[3-(2-methoxyphenyl)pyridin-2-yl]oxy}pyridin-2-yl)ethyl]-N,O-dimethylhydroxylamine] | ≤ 0.1 µg/mL | ≤ 0.1 µg/mL
CC(F)(F)c1ccc(Oc2ncccc2-c2ccnc3ccccc23)cn1 [I-108, 4-(2-{[6-(1,1-difluoroethyl)pyridin-3-yl]oxy}pyridin-3-yl)quinoline] | 0.2 to 0.78 µg/mL (≈ 0.55 to 2.15 µM) | ≤ 0.1 µg/mL
FC(F)(F)Oc1ccccc1-c1cccnc1Oc1ccc(C(F)(F)F)nc1 [I-21, 3-(2-trifluoromethoxyphenyl)-2-{[6-(trifluoromethyl)pyridin-3-yl]oxy}pyridine] | 0.2 to 0.78 µg/mL (≈ 0.5 to 1.95 µM) | 0.2 to 0.78 µg/mL (≈ 0.5 to 1.95 µM)
COc1ncncc1-c1cccnc1Oc1ccc(C(F)F)c(C)c1 [I-457] | ≤ 0.1 µg/mL | ≤ 0.1 µg/mL
CCc1cc(Oc2ncccc2-c2cnccc2OC)ccc1C [I-264, 2-(3-ethyl-4-methylphenoxy)-4′-methoxy-3,3′-bipyridine] | ≤ 0.1 µg/mL | ≤ 0.1 µg/mL
COc1ccccc1-c1cncnc1Oc1ccc(C(C)C)cc1 [I-320, 4-(4-isopropylphenoxy)-5-(2-methoxyphenyl)pyrimidine] | ≤ 0.1 µg/mL | ≤ 0.1 µg/mL
O=Cc1ccccc1-c1cccnc1Oc1ccc(C(F)(F)F)nc1 [I-63, 2-(2-{[6-(trifluoromethyl)pyridin-3-yl]oxy}pyridin-3-yl)-benzaldehyde] | 0.2 to 0.78 µg/mL (≈ 0.581 to 2.27 µM) | 0.2 to 0.78 µg/mL (≈ 0.581 to 2.27 µM)
COc1ccccc1-c1cccnc1Oc1ccc(C2CC2)nc1 [I-128, 2-[(6-cyclopropylpyridin-3-yl)oxy]-3-(2-methoxyphenyl)pyridine] | ≤ 0.1 µg/mL | ≤ 0.1 µg/mL
COc1ncccc1-c1cccnc1Oc1ccc(C(F)(F)F)nc1 [I-26, 2-methoxy-2′-{[6-(trifluoromethyl)pyridin-3-yl]oxy}-3,3′-bipyridine] | ≤ 0.1 µg/mL | ≤ 0.1 µg/mL
COc1cc(-c2cccnc2Oc2ccc(C(F)F)nc2)ccc1F [I-75, 2-{[6-(difluoromethyl)pyridin-3-yl]oxy}-3-(4-fluoro-3-methoxyphenyl)pyridine] | ≤ 0.1 µg/mL | ≤ 0.1 µg/mL
CCc1ccc(Oc2ncccc2-c2cccnc2OC)cc1 [I-280, 2-(4-ethylphenoxy)-2′-methoxy-3,3′-bipyridine] | ≤ 0.1 µg/mL | ≤ 0.1 µg/mL
COc1cccc(-c2cccnc2Oc2ccc(C(F)(F)F)cc2)n1 [I-213, 6-methoxy-2′-[4-(trifluoromethyl)phenoxy]-2,3′-bipyridine] | ≤ 0.1 µg/mL | ≤ 0.1 µg/mL
FC(F)(F)c1ccc(Oc2ncccc2-c2cccc3ccncc23)cn1 [I-43, 8-(2-{[6-(trifluoromethyl)pyridin-3-yl]oxy}pyridin-3-yl)-isoquinoline] | 0.2 to 0.78 µg/mL (≈ 0.544 to 2.12 µM) | 0.2 to 0.78 µg/mL (≈ 0.544 to 2.12 µM)
COCC(F)(F)c1ccc(Oc2ncccc2-c2cc(OC)ccc2F)cn1 [I-458] | ≤ 0.1 µg/mL | ≤ 0.1 µg/mL
COc1ccncc1-c1cccnc1Oc1ccc(C#N)cc1 [I-243, 4-{[4′-methoxy-(3,3′-bipyridin)-2-yl]oxy}benzonitrile] | 0.2 to 0.78 µg/mL (≈ 0.659 to 2.57 µM) | 0.2 to 0.78 µg/mL (≈ 0.659 to 2.57 µM)
COc1ncc(F)cc1-c1cccnc1Oc1cnc(C(F)(F)F)c(C)c1 [I-119, 5-fluoro-2-methoxy-2′-{[5-methyl-6-(trifluoromethyl)pyridin-3-yl]oxy}-3,3′-bipyridine] | ≤ 0.1 µg/mL | ≤ 0.1 µg/mL
COc1ccc(F)cc1-c1cncnc1Oc1ccc(C(C)(F)F)nc1 [I-360, 4-{[6-(1,1-difluoroethyl)pyridin-3-yl]oxy}-5-(5-fluoro-2-methoxyphenyl)pyrimidine] | ≤ 0.1 µg/mL | ≤ 0.1 µg/mL
